{"source": "patent US20250157571A1", "about": "“Methods, Apparatus, and Systems for Determining the Functional Microbial Niche and Identifying Interventions in Complex Hetergeneous Communities” (The Regents of the University of California, priority 2022, published 2025)", "type_in_all_cases": "cell-based", "key": {"[1]": {"test_system": "Chitinophaga", "test": "Pre-/probiotic intervention in natural soil, shotgun metagenomics relative abundance", "conditions": "natural soil in 0.1×R2A, 7 days", "experimental": "(§1) A soil associated with switchgrass lowland reference genome clone (Missaoui, Boerma, and Bouton 2005) that was sampled from a field located in Texas, USA (28.3325, −98.1175) was used. Fifty gram (50 g) of soil was added to 250 mL of 0.1×R2A culture medium or 0.1×R2A+SynCom inoculum prepared as described above, and this volume was spread in 14 mL culture tubes (5 mL in each tube). 50-500 μL of concentrated, filter-sterilized stocks of the desired substrates and/or 20 μL of the SynCom isolate pure cultures diluted at an OD600 of 0.02 (i.e. approximately 8.10^5 CFU/mL) were then added. Soil samples were then grown at 30° C. for 7 days, in aerobic conditions, in two biological replicates (three replicates for reference soil sample). After 7 days of culture, the soil samples were harvested by centrifugation and pellets were stored at −80° C. prior to metagenomics analysis.\n(§2) Soil samples from a switchgrass crop similar to the site from which the SynCom strains were originally isolated, were incubated in 33 different conditions: 0.1×R2A alone (soil control), with and without metabolite additions (prebiotic), and with and without individual SynCom members (probiotic, 8.10^5 CFU/mL), or the whole 16-member SynCom (probiotic consortium, 8.10^5 CFU/mL of each member) (see methods and FIG. 6). Changes in microbial community composition were analyzed by shotgun metagenomics."}, "[2]": {"test_system": "Mucilaginibacter", "test": "Pre-/probiotic intervention in natural soil, shotgun metagenomics relative abundance", "conditions": "natural soil in 0.1×R2A, 7 days", "experimental": "as §1, §2"}, "[3]": {"test_system": "16-member SynCom", "test": "Targeted interventions in the SynCom (prebiotic metabolite or probiotic strain addition), metagenomics relative abundance", "conditions": "7 days; for relative abundance of primary targets (high TE for import protein) after metabolite addition / relative abundance of secondary targets (guild competitors) after metabolite addition: SynCom in 0.1×R2A + substrate vs 0.1×R2A control; for change in relative abundance in the community upon metabolite addition: SynCom in 0.1×R2A + metabolite, three concentrations", "experimental": "Optical density readings at 600 nm (OD600), from isolates pre-cultures were taken with a Molecular Devices SpectraMax M3 Multi-Mode Microplate Reader (VWR, cat #89429-536). Precultures were diluted to a starting OD600 of 0.02 in 5 mL 0.1×R2A. The SynCom was assembled in large volumes to minimize pipetting error and maximize reproducibility. Briefly, 1 mL of each normalized culture (OD600=0.02) was diluted in a final volume of 250 mL 0.1×R2A and spread into 20 mL aliquots in Falcon tubes. Falcon tubes containing the SynCom inoculum were then incubated at 30° C. for 7 days, in aerobic conditions, in four biological replicates. After 7 days of culture, the SynCom samples were harvested by centrifugation and pellets were immediately treated for multi-omics analysis as detailed below (DNA-, RNA- and metaRibo-Seq).\nFor targeted modifications experiments carried out in the SynCom, the SynCom was assembled and cultured as described above, with modifications. Specific isolates were omitted from the SynCom assembly for the dropout experiments, as described in FIGS. 2d and 2e. Alternatively, concentrated stocks of either Burkholderia, Chitinophaga, Mucilaginibacter or Rhizobium were added as probiotics to the SynCom. Metabolites from concentrated, filter-sterilized stocks of the desired substrates were added to the medium for the prebiotics experiments. Modified SynCom were then incubated at 30° C. for 7 days, in aerobic conditions, in two biological replicates. After 7 days of culture, the modified SynCom samples were harvested by centrifugation and pellets were stored at −80° C. prior to metagenomics analysis.\nDNA and RNA from SynCom samples were extracted from leftover lysates from metaRibo-Seq sample preparation, stored in Trizol at −80 C. DNA from soil samples was extracted using ZymoBIOMICS DNA miniprep kit (Zymo). DNA-Seq libraries were prepared using Nextera XT library preparation kit with 700 pg DNA input per sample and 6:30 min tagmentation at 55° C. and barcoded using Nextera XT indexes (Illumina). RNA was extracted using RNeasy mini kit (Qiagen), and rRNA was removed using QIAseq FastSelect-5S/16S/23S kit (Qiagen). RNA-Seq libraries were prepared using KAPA RNA HyperPrep kit (Roche) and barcoded using TruSeq indexes (Illumina). Amplification was followed in real time using SYBR-Green and stopped when reaching a plateau.\nAdapter sequences were removed from multi-omics sequencing data using TrimGalore (Cutadapt version 1.18), and quality controlled using FastQC version 0.11.9 (Andrews et al. 2010). Trimmed reads were aligned to a custom SynCom database using bowtie2 version 2.3.2. Gene count tables were obtained using Woltka version 0.1.1 (Zhu et al. 2022). Multi-omics gene counts were normalized to reads per kilobase per million (RPKM)."}, "[4]": {"test_system": "Burkholderia", "test": "Pre-/probiotic intervention in natural soil, shotgun metagenomics relative abundance", "conditions": "for Burkholderia's relative abundance: soil+SynCom probiotic+prebiotic versus soil+SynCom probiotic (FIG. 6)"}, "[5]": {"test_system": "Rhizobium and Variovorax", "test": "Pre-/probiotic intervention in natural soil, shotgun metagenomics relative abundance", "conditions": "for relative abundance of Burkholderia's competitors Rhizobium and Variovorax: soil+SynCom probiotic+prebiotic versus soil+SynCom probiotic (FIG. 6)", "experimental": "as §1, §2"}, "[6]": {"test_system": "Paenibacillus", "test": "Pre-/probiotic intervention in natural soil, shotgun metagenomics relative abundance", "conditions": "natural soil in 0.1×R2A, 7 days", "experimental": "as §1, §2"}, "[7]": {"conditions": "natural soil in 0.1×R2A, 7 days"}}, "note": "Entries after “also recorded” stand apart in the source; their conditions may differ."}
{"smiles": "N[C@@H](CCC(=O)N[C@@H](CS)C(=O)NCC(=O)O)C(=O)O", "note": "[glutathione]", "values": [{"measurement": "Chitinophaga relative abundance (in words)", "setting": "[1]", "value": "did not increase Chitinophaga"}, {"measurement": "Mucilaginibacter relative abundance (in words)", "setting": "[2]", "value": "did not decrease Mucilaginibacter abundance"}, {"measurement": "relative abundance of primary targets (high TE for import protein) after metabolite addition", "setting": "[3]", "value": "specifically increased primary targets Burkholderia and Chitinophaga"}, {"measurement": "relative abundance of secondary targets (guild competitors) after metabolite addition", "setting": "[3]", "value": "decreasing their competitors Mucilaginibacter, and Bradyrhizobium"}]}
{"smiles": "NCCCCN", "note": "[putrescine]", "values": [{"measurement": "relative abundance of primary targets (high TE for import protein) after metabolite addition", "setting": "[3]", "value": "specifically increased Paenibacillus and Rhodococcus"}, {"measurement": "relative abundance of secondary targets (guild competitors) after metabolite addition", "setting": "[3]", "value": "reducing competitors Rhizobium, Bradyrhizobium, and Mucilaginibacter"}]}
{"smiles": "C/C1=C2/[N-][C@H]([C@H](CC(N)=O)[C@@]2(C)CCC(=O)NC[C@H](C)OP(=O)([O-])O[C@H]2[C@@H](O)[C@@H](n3cnc4cc(C)c(C)cc43)O[C@@H]2CO)[C@]2(C)N=C(/C(C)=C3N=C(/C=C4N=C1[C@@H](CCC(N)=O)C\\4(C)C)[C@@H](CCC(N)=O)[C@]\\3(C)CC(N)=O)[C@@H](CCC(N)=O)[C@]2(C)CC(N)=O.[Co+2]", "note": "(stereo in doubt) [cobalamin]", "values": [{"measurement": "change in relative abundance in the community upon metabolite addition", "setting": "[3]", "value": "did not induce any significant change"}]}
{"smiles": "N[C@@H](CSSC[C@H](N)C(=O)O)C(=O)O", "note": "[cystine]", "values": [{"measurement": "change in relative abundance in the community upon metabolite addition", "setting": "[3]", "value": "did not induce any significant change"}]}
{"smiles": "CSCC[C@H](N)C(=O)O", "note": "[methionine]", "values": [{"measurement": "change in relative abundance in the community upon metabolite addition", "setting": "[3]", "value": "did not induce any significant change"}]}
{"smiles": "O=C(CO)[C@@H](O)[C@H](O)[C@H](O)CO", "note": "[fructose]", "values": [{"measurement": "Burkholderia relative abundance, fold change", "setting": "[4]; [7]", "value": 3.9, "unit": "fold change"}, {"measurement": "Burkholderia's relative abundance", "setting": "[4]", "value": "increase in Burkholderia's relative abundance"}, {"measurement": "relative abundance of Burkholderia's competitors", "setting": "[5]; [7]", "value": "decrease of its closest competitors Rhizobium and Variovorax"}, {"measurement": "relative abundance of Burkholderia's competitors Rhizobium and Variovorax", "setting": "[5]", "value": "decrease of its competitors Rhizobium and Variovorax"}]}
{"smiles": "OC[C@H]1O[C@H](O[C@H]2O[C@H](CO)[C@@H](O)[C@H](O)[C@H]2O)[C@H](O)[C@@H](O)[C@@H]1O", "note": "[trehalose]", "values": [{"measurement": "Paenibacillus relative abundance, fold change", "setting": "[6]", "value": 5.5, "unit": "fold change"}]}
{"smiles": "O=C[C@H](O)[C@H](O)[C@H](O)CO", "note": "[ribose]", "values": [{"measurement": "Burkholderia's relative abundance", "setting": "[4]", "value": "increase in Burkholderia's relative abundance"}, {"measurement": "Paenibacillus relative abundance, fold change", "setting": "[6]", "value": 3.5, "unit": "fold change"}, {"measurement": "relative abundance of Burkholderia's competitors Rhizobium and Variovorax", "setting": "[5]", "value": "decrease of its competitors Rhizobium and Variovorax"}, {"measurement": "relative abundance of primary targets (high TE for import protein) after metabolite addition", "setting": "[3]", "value": "specific increase of primary targets Paenibacillus and Burkholderia; also recorded: Paenibacillus (increased), Arthobacter and Brevibacillus (not increased)"}, {"measurement": "relative abundance of secondary targets (guild competitors) after metabolite addition", "setting": "[3]", "value": "specific decrease of Burkholderia's competitors Variovorax, Rhizobium, and Bradyrhizobium"}]}
